In series [1] the target is T1, human TMEM16A (TMEM16Aabc variant) (Homo sapiens, UniProt Q5XXA6).
T1 construct: human TMEM16A (TMEM16Aabc variant)
T1 sequence (Q5XXA6 1-986): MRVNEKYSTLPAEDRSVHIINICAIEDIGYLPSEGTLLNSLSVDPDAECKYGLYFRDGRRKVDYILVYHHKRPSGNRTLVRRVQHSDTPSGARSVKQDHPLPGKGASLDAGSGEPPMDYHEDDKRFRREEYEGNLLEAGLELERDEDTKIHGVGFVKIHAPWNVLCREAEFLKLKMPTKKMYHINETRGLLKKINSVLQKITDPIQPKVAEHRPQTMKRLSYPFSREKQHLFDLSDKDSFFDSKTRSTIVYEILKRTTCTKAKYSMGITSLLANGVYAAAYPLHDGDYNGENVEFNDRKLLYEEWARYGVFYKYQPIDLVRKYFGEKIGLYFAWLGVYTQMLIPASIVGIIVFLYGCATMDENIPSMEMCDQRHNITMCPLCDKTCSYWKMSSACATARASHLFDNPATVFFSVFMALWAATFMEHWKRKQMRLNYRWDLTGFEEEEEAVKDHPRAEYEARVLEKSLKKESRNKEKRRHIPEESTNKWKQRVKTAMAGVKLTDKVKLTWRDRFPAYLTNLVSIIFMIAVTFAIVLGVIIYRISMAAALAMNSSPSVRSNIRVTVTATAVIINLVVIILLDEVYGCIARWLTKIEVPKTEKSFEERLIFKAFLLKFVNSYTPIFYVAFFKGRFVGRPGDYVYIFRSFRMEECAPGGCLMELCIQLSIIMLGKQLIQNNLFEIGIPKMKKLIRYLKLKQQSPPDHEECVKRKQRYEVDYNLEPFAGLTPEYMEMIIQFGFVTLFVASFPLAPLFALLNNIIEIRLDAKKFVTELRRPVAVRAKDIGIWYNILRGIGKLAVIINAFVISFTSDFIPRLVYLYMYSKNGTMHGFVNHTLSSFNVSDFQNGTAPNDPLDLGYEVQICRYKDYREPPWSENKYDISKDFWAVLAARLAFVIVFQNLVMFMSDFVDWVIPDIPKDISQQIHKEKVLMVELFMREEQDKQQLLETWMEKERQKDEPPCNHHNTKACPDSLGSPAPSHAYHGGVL
As to the kind of experiment: Automated whole-cell patch clamp (QPatch) TMEM16A potentiator assay in FRT cells stably expressing human TMEM16A. The following applies: for QPatch TMEM16A % Potentiation @ 370 nM: 370 nM test compound; for QPatch TMEM16A % Potentiation @ 370 nM / QPatch TMEM16A % Potentation @ 3.3 μM: percentage increase of baseline TMEM16A current; for QPatch TMEM16A % Potentation @ 3.3 μM: 3.3 μM test compound. The format is cell-based. Here is the method:
Fisher rat thyroid (FRT) cells stably expressing human TMEM16A (TMEM16Aabc variant; Dr Luis Galietta, Insituto Giannina, Italy) were cultured in T-75 flasks in Hams F-12 media with Coon's modification (Sigma) supplemented with 10% (v/v) foetal bovine serum, penicillin-streptomycin (10,000 U/mL/10000 μg/mL), G-418 (750 μg/mL), L-glutamine (2 mM) and sodium bicarbonate solution (7.5% v/v). At ˜90% confluence cells were harvested for experiments by detachment with a 2:1 (v/v) mixture of Detachin (BMS Biotechnology) and 0.25% (w/v) trypsin-EDTA.
FRT-TMEM16A cells were whole-cell patch clamped using an automated planar patch clamp system (Qpatch, Sophion). Briefly, once high resistance (GOhm) seals were established between the cells and the planar recording array the patch was ruptured using suction pulses to establish the whole-cell recording configuration of the patch clamp technique. The assay employed the following solutions (all reagents Sigma): Intracellular solution (mM): N-methyl-D-glucamine 130, CaCl2 18.2, MgCl2 1, HEPES 10, EGTA 10, BAPTA 20, Mg-ATP 2, pH 7.25, 325 mOsm with sucrose.
Extracellular solution (mM): N-methyl-D-glucamine 130, CaCl2 2, MgCl2 1, HEPES 10, pH 7.3, 320 mOsm with sucrose.
The intracellular solution buffers intracellular calcium at levels required to give ˜20% activation of the maximal TMEM16A mediated current (EC20 for calcium ions). Cells were voltage clamped at a holding potential of −70 mV and a combined voltage step (to +70 mV)/ramp (−90 my to +90 mV) was applied at 0.05 Hz. After a period of current stabilisation test compounds, solubilised in 100% (v/v) DMSO and subsequently diluted into extracellular solution, were applied to generate a cumulative concentration response curve. Each concentration of test compound was incubated for 5 minutes before addition of the next concentration. After the final concentration was tested a supramaximal concentration of either a known active positive modulator or the TMEM16A inhibitor, CaCCinhA01 (Del La Fuente et al, 2008) was added to define the upper and lower limits of the assay.
Compound activity was quantified by measuring the increase in current upon compound addition and expressing this as a percentage increase of baseline TMEM16A current level.
In FIG. 1, IBL equals baseline current, I[#1] equals the peak current during test compound concentration 1 incubation period and so on.
Peak TMEM16A current at +70 mV was plotted as a function of time over the assay period. Baseline current (IBL) was measured after a period of stabilisation. The increase in current for each compound addition was determined by taking the peak current during the incubation period and subtracting the current from the previous recording period and then expressing this as a percentage of the baseline current (% potentiation). For test compound concentration 1 in FIG. 1 this is: (I[#1]−IBL/IBL)×100 For each additional concentration tested the increase in current was determined by subtracting the current from the previous incubation period and normalising the baseline value—for test concentration 2 in FIG. 1 this is: (I[#2]−I[#1])/IBL)×100 The values for each test concentration were plotted as a cumulative function of concentration eg. for test concentration two this would be the sum of the peak changes measured during concentration one plus concentration two.
Background: In patch-clamp work, channel activity is measured electrically.

Series [2] in a line: Microsomal stability (human microsomes). The format is in vitro ADME. The following applies: pH 7.4, 1 μM compound, 0.5 mg/mL protein, 1 mM NADPH, 37° C., read-out: Human Microsome Clint. Here is the method: Microsomes (human) were obtained from Bioreclamation.
All Test and reference control compounds (raloxifene, diclofenac, terfenadine, propranolol, dextromethorphan and metoprolol) were dissolved to create a 100 μM stock (final concentrations; 91.5% Acetonitrile: 8.5% DMSO). Final test compound concentration in incubation was 1 μM (<0.1% DMSO).
Solution 1: 17.4 g potassium phosphate dibasic anhydrous (K2HPO4, 0.1 M) dissolved in 1 L deionised water. Solution 2: 13.6 g potassium phosphate monobasic anhydrous (KH2PO4, 0.1 M) dissolved in 1 L deionised water. pH7.4 with 2 mM magnesium chloride. NADPH (10 mM) is prepared in deionised water. Microsomes (all species) were removed from the −80° C. thawed at 37° C. Microsomes were diluted in assay buffer to achieve a final protein concentration of 0.5 mg/mL and 1 mM NADPH.
The following procedure was completed on a Perkin Elmer Janus robotic platform in 96 well format: The microsomal incubation plate was transferred to a heater shaker at 300 rpm and solution heated to 37° C. for 10 min pre-warm. A no co-factor control at 0 and 45 min and one replicates of each test compound was included in every assay. Microsomes were incubated at 37° C., on a shaker set at 300 rpm throughout the assay. […]

SMILES strings stand for the structures.

On to `C#CC(C)(C)NC(=O)c1cc(NC(=O)Cc2cccc3cc[nH]c23)ccn1` [Compound B, reference compound], for which, in series [1], the “QPatch TMEM16A % Potentiation @ 370 nM” value is given as 42% and the “QPatch TMEM16A % Potentation @ 3.3 μM” value turned out to be 64%. The microsomal CLint at 1 μM in series [2] turned out to be 46 µL/min/mg.
By EC50 is commonly meant the concentration giving half of the maximal effect. For the molecule `CC1(NC(=O)c2cc(NC(=O)Cc3ccc4cc[nH]c4c3)ccn2)CC(F)(F)C1` [Example 13.1, N-(3,3-Difluoro-1-methyl-cyclobutyl)-4-[[2-(1H-indol-6-yl)acetyl]amino] pyridine-2-carboxamide], in series [1], the “QPatch TMEM16A % Potentiation @ 370 nM” value is 113% and the “QPatch TMEM16A % Potentation @ 3.3 μM” value was determined as 115%. For the same molecule, the EC50 in series [1] (FRT-TMEM16A cells, whole-cell patch clamp, peak current at +70 mV, intracellular calcium at EC20) worked out at 50 nM. In addition, the “EC50 compared with Compound B” value in series [1] (indole compounds versus comparator Compound B) was “lower EC50 values than Compound B”. For the same molecule, the “maximum potentiation of TMEM16A compared with Compound B” value in series [1] (versus comparator Compound B) is “improved maximum potentiation of TMEM16A”. Further, the microsomal CLint at 1 μM in series [2] worked out at 199 µL/min/mg.

For the origin of these results see US12545658B2, “Pyridine derivatives as calcium-activated chloride channel modulators” (TMEM16A LIMITED, priority 2019, dated 2026).
